The conditions of series [1]: phonophoresis or subconjunctival injection, cited from earlier work.
The nature of series [2]: Stability of carnosine in contact lens care solution. The class given is physicochemical. The settings on record: under circumstances; carnosine utilized by bacteria and/or fungi in the solution.

Consider `CC(=O)NCCC(=O)N[C@@H](Cc1cnc[nH]1)C(=O)O` [N-acetylcarnosine, reference compound], for which the “time within which carnosine accumulates in the aqueous humour after topical administration” value in series [1] (1% N-acetylcarnosine added to the eye) is 15 to 30 min. Regarding `NCCC(=O)N[C@@H](Cc1cnc[nH]1)C(=O)O` [carnosine, (2S)-2-[(3-Amino-1-oxopropyl)amino]-3-(3H-imidazol-4-yl)propanoic acid], in series [2], the “stability of carnosine present in the contact lens care solution” value was “less stable than expected”. For the same compound, the “effectiveness of carnosine administration in itself to the eye” value in series [1] (quickly metabolised by carnosinase in the eye) is “ineffective”.

The record behind these values is patent US20110230424A1, “OPHTHALMIC SOLUTIONS, INCLUDING CONTACT LENS CARE AND EYE DROPS COMPRISING CARNOSINE, PREFERABLY IN COMBINATION WITH DEXPANTHENOL AND/OR HYALURONIC ACID” (priority 2008, published 2011).
